The results in this text go back to patent EP4417190A1, “CYCLIC PEPTIDES WITH ANTI-AGING EFFICACY” (Lipotrue, S.L., priority 2023, dated 2024).

Ends that are not written are not given here. Peptide text beside a SMILES is read from it.

The test system of one data set is CALR. The data set can be described thus: RT-qPCR expression of CALR gene in HEKa. The following applies: 0.01 mg/mL, 24 hours, qPCR (Table 5).
Another data set concerns Caspase 3 (CASP3). The data set can be described thus: Caspase 3 activity under BFA-induced endoplasmic reticulum stress in HEKa (Caspase-Glo 3/7). The settings on record: BFA-induced ER stress, 24 h, vs BFA-treated cells (Figure 5). The format is cell-based, human. The procedure: Caspase 3 (CASP3) is a protein member of the cysteine-aspartic acid protease family. Sequential activation of caspases plays a central role in the execution-phase of cell apoptosis. It was evaluated the effect of the cycled peptide B on the caspase 3 activity in human epidermal keratinocytes from adult (HEKa) subjected to endoplasmic reticulum (ER) stress.
HEKa cells were seeded in a black 96-well plate at a density of 18.000 cell/well in Dermal Cell Basal Medium (DCBM) and incubated at 37 °C in a humidified atmosphere with 5% CO2. After 24 h of incubation, cells were treated with 0.15 µg/mL BFA alone or in the presence of 0.005 mg/mL of the cycled peptide B and returned to the incubator for 24 h more. Untreated cells (Basal) were used as negative control samples. 24 hours after treatment, caspase 3 activity was evaluated using Caspase-Glo® 3/7 Assay System, following manufacturer instructions.
Each condition was performed at least in triplicates (n=3) in three independent experiments (N=3). For all data, mean values of relative fluorescence units (RFU) of the different experiments and SEM values are shown. All data was normalized as follows: % vs BFA = (RFU treated cells)/(RFU BFA treated cells) × 100 [formula]
Statistical data analysis was performed using Student t-test by comparison of % activity from test substance vs BFA-treated cells, *p<0.05, **p<0.01, ***p<0.001.

Data set [1] can be described thus: MTT assay, toxicity on HDFa cells. Format: cell-based. The settings on record: human, normalized to non-treated cells, read-out: Cell viability. The procedure: (§1) Toxicity of cycled peptides A and B was analyzed on human dermal fibroblasts (HDFa) and adult human epidermal keratinocytes HEKa cells by MTT assay. A stock solution of the peptide was prepared in distilled water at 25 mg/mL. This stock solution was further diluted to obtain the final working concentrations (0.001, 0.005, 0.01, 0.05, 0.1 and 0.5 mg/mL) in the corresponding culture medium. Untreated cells were used as negative control samples (Basal).
(§2) Briefly, HEKa and HDFa cells were seeded in 96-well plates at a concentration of 1×10^5 cells/mL in a final volume of 200 µL of medium (20,000 cells/well). HEKa cells were incubated in Dermal Cell Basal Medium supplemented with the Keratinocytes Growth Kit; and HDFa cells were cultured in Medium 106 supplemented with 2% of LSGS. Cells were incubated at 37°C, 5% CO2 and saturated humidity.
(§3) After 24 h of incubation, cells were treated with different concentrations of each peptide (0.001, 0.005, 0.01, 0.05, 0.1 and 0.5 mg/mL) in triplicates, for MTT evaluation. After 24 h of treatment with the peptide, medium was completely removed, and 100 µL of 0.5 mg/mL MTT solution in supplemented medium were added to each well and cells were incubated at 37°C for 3 h. After incubating with MTT, the medium of each well was aspirated and 150 µL of DMSO were added in order to solubilise the formazan crystals formed. The plates were placed on a shaker for 5 minutes for complete solubilisation of the crystals and then the absorbance at 570 nm of each well was determined, using the microplate reader Multiskan FC, which is directly proportional to the number of living cells in culture.
(§4) Absorbance values were normalized using the data obtained for non-treated cells (control), obtaining the % of viability shown in Tables 1 and 2. Each condition was performed in triplicate (n=3) in 3 independent experiments (N=3).
(§5) Concentrations of peptide for which viability is above 80% are considered safe for efficacy testing. On the contrary, concentrations for which viability goes below 80% are considered potentially toxic and are not used for efficacy testing purposes. Table 1: Toxicity of cycled peptides on HDFa cells.
Background: Tetrazolium dyes change colour on reduction, which living cells bring about.

Data set [2] can be described thus: MTT assay, toxicity on HEKa cells. Format: cell-based. The following applies: human, normalized to non-treated cells, read-out: Cell viability. The procedure: as §1, §2, §3, §4, §5

Protocol for CALR: HEKa cells were incubated in the presence of 0.01 mg/mL cycled peptide B for 24 hours and HDFa cells were treated with 0.05 mg/mL of cycled peptide B for 6 h. Then, cells were lysed, and RNA was extracted (RNeasy mini kit, Qiagen). Purified RNAs were retro-transcribed (High-capacity cDNA reverse transcription kit, Applied Biosystems). RT-qPCR was performed with the panel of TaqMan assay probes (Thermo Fisher Scientific) using StepOne plus Real time PCR instrument. […] The obtained data were analyzed using the ΔΔCt method, which provides the target gene expression values as fold changes in the treated sample compared with an untreated basal sample. Both samples were normalized with the relative expression of the housekeeping gene GAPDH.
Additionally, expression of CALR after treatment with 0.01 mg/mL of cycled peptides A and B for 24 hours in HEKa cells was analyze by qPCR as described in example 3.

In the case of `CC(C)C[C@@H]1NC(=O)[C@H](C)NC(=O)[C@H](CCCNC(=N)N)NC(=O)[C@H](Cc2ccccc2)NC(=O)[C@H](Cc2c[nH]c3ccccc23)NC(=O)[C@H](Cc2c[nH]cn2)NC1=O` [Peptide A, cyclo-Trp-Phe-Arg-Ala-Leu-His] (cyclo(ALHWFR)), in the data set with CALR, the “CALR expression, Effect” value is given as “Upregulation”. Further, the “CALR expression, Ratio” value in the data set with CALR (Basal = 1.00) is on record as 1.34. Besides, the “caspase 3 activity” value with Caspase 3 (CASP3) is given as “significantly reduce”. Moreover, the viability at 24 h in data set [1] (0.001 mg/mL peptide) was determined as 101%; in data set [1] (0.005 mg/mL peptide) it was 103%; in data set [1] (0.01 mg/mL peptide), 94.5%; in data set [1] (0.05 mg/mL peptide) it was 103%; in data set [1] (0.1 mg/mL peptide), 92.3%; in data set [1] (0.5 mg/mL peptide) it was 81.5%. Moreover, the viability at 24 h in data set [2] (0.001 mg/mL peptide) came to 103%; in data set [2] (0.005 mg/mL peptide), 108%; in data set [2] (0.01 mg/mL peptide) it was 109%; in data set [2] (0.05 mg/mL peptide), 93.8%; in data set [2] (0.1 mg/mL peptide) it was 88.3%; in data set [2] (0.5 mg/mL peptide), 75%.
Regarding “FWHALR [Linear peptide B, reference compound]”, the “CALR expression, Effect” value in the data set on CALR is on record as “No effect”.

As a reminder, the viability is a read-out of living cells in per cent, often relative to untreated cells.
